Source: ChEMBL document CHEMBL1201862, “PubChem BioAssay data set” (2004)
Activity calls are given as the source filed them.

Tests used:
[1] = target: Glucose-6-phosphate 1-dehydrogenase (Homo sapiens, UniProt P11413); assay: human G6PD enzyme inhibitors, dose response, selectivity assay for P. falciparum G6PD inhibitor project, biochemical, fluorescence (AID 504792); type: functional
[2] = target: Large T antigen (Simian virus 40, UniProt P03070); type: functional, Betapolyomavirus macacae;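 further: Confirmatory-stage PubChem screen for compounds that inhibit SV40 T antigen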
Chain of Large T antigen (P03070 whole entry): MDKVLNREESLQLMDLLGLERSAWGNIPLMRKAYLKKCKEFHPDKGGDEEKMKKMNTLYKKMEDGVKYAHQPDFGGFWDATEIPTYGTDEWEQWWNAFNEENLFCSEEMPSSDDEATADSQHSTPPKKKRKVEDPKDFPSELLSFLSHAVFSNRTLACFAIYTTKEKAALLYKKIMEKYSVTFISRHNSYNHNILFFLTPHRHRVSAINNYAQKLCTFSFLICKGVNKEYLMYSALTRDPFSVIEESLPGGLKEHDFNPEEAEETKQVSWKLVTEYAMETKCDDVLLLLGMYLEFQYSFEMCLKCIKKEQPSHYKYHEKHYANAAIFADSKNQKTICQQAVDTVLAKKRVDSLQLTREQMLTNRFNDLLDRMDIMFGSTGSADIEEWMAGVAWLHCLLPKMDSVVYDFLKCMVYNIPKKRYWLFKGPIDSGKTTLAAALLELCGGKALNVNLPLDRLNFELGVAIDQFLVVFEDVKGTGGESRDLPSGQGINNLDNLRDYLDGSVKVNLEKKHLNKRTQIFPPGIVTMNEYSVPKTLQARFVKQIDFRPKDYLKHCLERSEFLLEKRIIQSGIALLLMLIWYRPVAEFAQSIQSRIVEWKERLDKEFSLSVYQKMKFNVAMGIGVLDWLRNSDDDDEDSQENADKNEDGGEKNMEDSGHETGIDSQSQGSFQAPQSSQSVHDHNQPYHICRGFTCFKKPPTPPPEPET

[3] = target: T1, Zinc finger protein mex-5 (Caenorhabditis elegans, UniProt Q9XUB2); assay: MEX-5/TCR-2 RNA interaction inhibitors, dose response, biochemical, C. elegans, fluorescence polarization (AID 1960)
T1 sequence (Q9XUB2 whole entry): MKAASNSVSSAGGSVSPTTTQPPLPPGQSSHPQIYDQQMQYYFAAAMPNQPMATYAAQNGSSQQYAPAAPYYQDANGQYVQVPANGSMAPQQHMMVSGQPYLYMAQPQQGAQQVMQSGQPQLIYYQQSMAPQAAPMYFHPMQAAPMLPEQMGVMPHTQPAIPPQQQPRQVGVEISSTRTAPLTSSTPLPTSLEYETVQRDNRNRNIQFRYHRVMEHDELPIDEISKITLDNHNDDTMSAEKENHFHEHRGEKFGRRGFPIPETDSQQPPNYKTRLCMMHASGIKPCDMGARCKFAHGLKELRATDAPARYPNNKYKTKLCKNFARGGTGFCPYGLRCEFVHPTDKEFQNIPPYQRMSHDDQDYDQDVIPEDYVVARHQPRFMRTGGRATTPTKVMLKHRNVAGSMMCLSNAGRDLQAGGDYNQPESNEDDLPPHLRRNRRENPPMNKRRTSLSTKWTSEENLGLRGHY

[4] = HEp-2 cell cytotoxicity, dose response, cytotoxicity control for RSV inhibitor project, HTS (AID 2410); type: functional; conditions: human respiratory syncytial virus
[5] = target: Mu-type opioid receptor (Homo sapiens, UniProt P35372); type: functional, cell-based;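 further: U2OS cells with beta-arrestin recruitment to OPRM1 by beta-gal complementation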
Chain of Mu-type opioid receptor (P35372 whole entry, the tested form may be a part): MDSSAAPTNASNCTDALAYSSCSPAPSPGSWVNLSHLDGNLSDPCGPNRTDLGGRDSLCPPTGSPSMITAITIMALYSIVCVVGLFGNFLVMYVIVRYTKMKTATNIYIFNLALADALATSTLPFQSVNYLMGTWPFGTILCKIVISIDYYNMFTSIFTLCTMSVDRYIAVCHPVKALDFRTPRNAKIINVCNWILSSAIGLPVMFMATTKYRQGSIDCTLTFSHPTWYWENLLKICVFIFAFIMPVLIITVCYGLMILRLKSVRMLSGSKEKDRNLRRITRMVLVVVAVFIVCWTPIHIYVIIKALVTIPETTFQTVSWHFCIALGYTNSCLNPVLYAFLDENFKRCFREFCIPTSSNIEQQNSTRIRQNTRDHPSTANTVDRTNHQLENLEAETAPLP

[6] = target: T2, RNA-binding protein pos-1 (Caenorhabditis elegans, UniProt G5EF15); assay: inhibitors of POS-1/mex-3 RNA binding, dose response, biochemical, fluorescence polarization (AID 1964);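 further: purified POS-1 fused to maltose binding protein made in E. coli; potency of compounds blocking POS-1 binding to fluorescent RNA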
T2 sequence (G5EF15 whole entry): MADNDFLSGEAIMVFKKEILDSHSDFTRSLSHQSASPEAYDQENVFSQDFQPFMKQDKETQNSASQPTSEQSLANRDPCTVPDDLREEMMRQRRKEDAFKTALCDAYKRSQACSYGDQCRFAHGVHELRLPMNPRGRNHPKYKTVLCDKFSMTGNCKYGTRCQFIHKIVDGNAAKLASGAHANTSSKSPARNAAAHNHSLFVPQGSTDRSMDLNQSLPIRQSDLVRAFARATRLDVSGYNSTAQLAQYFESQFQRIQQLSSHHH

[7] = target: 5-hydroxytryptamine receptor 2A (Mus musculus, UniProt P35363); type: functional, cell-based;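 further: CHO-K1 cells with tagged receptor and beta-arrestin; agonist potency measured as compound-induced activation of the receptor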
Chain of 5-hydroxytryptamine receptor 2A (P35363 whole entry): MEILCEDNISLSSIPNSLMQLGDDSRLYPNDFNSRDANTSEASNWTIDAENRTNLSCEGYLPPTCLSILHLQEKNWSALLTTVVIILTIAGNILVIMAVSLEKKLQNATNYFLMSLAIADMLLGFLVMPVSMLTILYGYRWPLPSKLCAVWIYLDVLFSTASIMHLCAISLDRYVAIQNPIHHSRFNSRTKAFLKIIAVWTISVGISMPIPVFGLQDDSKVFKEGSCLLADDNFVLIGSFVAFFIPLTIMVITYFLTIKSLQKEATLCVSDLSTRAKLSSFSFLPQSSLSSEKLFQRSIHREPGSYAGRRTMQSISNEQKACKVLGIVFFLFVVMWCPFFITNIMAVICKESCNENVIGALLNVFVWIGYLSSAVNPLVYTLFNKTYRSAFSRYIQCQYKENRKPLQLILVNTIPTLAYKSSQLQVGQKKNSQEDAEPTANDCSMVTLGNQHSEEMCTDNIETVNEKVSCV

[8] = target: SWI/SNF-related matrix-associated actin-dependent regulator of chromatin subfamily A member 2 (Homo sapiens, UniProt P51531); assay: Luminescence-based cell-based high throughput dose response assay to identify activators of the function of SWI/SNF related, matrix associated, actin dependent regulator of chromatin, subfamily a, member 2 (SMARCA2, BRM).; type: functional
Chain of SWI/SNF-related matrix-associated actin-dependent regulator of chromatin subfamily A member 2 (P51531 whole entry): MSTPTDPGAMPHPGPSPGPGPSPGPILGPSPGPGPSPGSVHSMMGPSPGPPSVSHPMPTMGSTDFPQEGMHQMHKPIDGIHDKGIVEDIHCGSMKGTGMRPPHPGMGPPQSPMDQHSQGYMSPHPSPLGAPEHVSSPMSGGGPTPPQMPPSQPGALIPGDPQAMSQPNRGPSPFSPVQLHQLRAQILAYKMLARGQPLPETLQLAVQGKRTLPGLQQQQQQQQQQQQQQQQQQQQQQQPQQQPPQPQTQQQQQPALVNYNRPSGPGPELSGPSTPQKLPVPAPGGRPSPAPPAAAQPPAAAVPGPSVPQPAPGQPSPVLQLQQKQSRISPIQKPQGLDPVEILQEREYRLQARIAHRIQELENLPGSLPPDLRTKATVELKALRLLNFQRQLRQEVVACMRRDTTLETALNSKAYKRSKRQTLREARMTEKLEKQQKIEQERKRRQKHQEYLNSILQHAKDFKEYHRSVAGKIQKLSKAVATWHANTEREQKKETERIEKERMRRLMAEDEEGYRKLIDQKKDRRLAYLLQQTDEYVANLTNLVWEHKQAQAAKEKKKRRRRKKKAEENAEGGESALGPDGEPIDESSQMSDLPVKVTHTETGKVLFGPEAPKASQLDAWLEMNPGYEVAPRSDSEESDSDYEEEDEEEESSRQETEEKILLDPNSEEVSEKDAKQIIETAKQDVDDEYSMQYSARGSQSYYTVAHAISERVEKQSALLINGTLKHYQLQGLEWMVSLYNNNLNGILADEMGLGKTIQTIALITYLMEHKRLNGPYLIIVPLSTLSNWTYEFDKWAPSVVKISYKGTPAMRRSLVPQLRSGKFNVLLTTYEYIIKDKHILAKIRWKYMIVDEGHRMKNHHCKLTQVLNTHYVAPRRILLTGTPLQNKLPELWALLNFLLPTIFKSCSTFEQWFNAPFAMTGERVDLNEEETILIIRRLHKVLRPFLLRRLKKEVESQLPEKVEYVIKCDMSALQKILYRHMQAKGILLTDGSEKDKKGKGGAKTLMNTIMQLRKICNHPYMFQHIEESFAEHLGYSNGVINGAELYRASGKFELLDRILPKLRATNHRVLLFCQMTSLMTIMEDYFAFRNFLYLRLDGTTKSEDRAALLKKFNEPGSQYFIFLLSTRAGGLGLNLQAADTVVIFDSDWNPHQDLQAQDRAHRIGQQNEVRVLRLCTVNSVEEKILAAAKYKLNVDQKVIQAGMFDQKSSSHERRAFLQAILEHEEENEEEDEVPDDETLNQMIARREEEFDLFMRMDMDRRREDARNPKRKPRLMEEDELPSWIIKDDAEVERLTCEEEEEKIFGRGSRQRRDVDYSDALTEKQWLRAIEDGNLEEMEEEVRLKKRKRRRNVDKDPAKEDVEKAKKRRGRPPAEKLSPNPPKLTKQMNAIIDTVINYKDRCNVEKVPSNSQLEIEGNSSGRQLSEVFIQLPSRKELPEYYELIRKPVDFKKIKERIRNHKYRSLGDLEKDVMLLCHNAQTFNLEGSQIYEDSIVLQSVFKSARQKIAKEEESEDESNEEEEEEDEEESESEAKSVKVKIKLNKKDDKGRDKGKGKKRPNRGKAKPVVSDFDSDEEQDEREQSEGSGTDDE

[9] = Counterscreen for activators of the function of SWI/SNF related, matrix associated, actin dependent regulator of chromatin, subfamily a, member 2 (SMARCA2, BRM): Luminescence-based cell-based high throughput dose response assay to identify non-selective compounds using the VP16 reporter assay.; type: functional
[10] = target: Beta-galactosidase (Escherichia coli, UniProt Q8VNN2); assay: Dose response counterscreen for EBI2 assay utilizing the enzyme, b-galactosidase.; type: functional
Chain of Beta-galactosidase (Q8VNN2 whole entry): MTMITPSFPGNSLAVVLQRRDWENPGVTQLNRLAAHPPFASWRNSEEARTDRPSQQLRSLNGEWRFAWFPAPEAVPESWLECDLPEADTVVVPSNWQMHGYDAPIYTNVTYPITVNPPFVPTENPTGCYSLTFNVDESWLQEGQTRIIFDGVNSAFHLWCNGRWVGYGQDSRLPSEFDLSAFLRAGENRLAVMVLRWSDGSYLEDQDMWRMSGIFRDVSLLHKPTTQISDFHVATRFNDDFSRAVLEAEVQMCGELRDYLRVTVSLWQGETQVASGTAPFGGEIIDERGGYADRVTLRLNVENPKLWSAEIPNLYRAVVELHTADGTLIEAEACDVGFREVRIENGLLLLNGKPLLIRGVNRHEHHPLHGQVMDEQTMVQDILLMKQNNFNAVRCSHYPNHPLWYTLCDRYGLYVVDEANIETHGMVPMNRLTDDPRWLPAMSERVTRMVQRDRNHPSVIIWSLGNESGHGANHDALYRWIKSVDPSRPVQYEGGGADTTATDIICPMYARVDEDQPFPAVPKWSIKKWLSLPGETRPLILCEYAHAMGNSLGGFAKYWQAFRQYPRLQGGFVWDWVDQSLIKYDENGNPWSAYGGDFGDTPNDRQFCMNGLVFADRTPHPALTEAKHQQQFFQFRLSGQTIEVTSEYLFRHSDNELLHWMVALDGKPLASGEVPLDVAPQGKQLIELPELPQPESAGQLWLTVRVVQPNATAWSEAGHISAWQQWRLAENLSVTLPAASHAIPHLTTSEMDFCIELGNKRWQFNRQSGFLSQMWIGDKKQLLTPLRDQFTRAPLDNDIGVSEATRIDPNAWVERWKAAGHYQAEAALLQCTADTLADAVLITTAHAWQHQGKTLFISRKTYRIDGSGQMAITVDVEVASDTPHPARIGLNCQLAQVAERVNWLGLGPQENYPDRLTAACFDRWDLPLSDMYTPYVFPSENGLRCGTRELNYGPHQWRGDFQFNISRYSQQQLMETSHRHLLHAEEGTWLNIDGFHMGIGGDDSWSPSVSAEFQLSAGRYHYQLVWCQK

[11] = target: T3, Heat shock factor protein 1 (Mus musculus, UniProt P38532); assay: HSF1 potentiators in luciferase reporter cells, confirmation, cell-based, NIH3T3, luminescence, dose retest (AID 435004); type: functional;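 further: stress induced by proteasome inhibitor MG132 added 30 min after compound; luciferase reporter driven by HSF1 response element in NIH3T3 cells; actives raise luminescence as potentiators of the MG132 stress response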
T3 sequence (P38532 whole entry): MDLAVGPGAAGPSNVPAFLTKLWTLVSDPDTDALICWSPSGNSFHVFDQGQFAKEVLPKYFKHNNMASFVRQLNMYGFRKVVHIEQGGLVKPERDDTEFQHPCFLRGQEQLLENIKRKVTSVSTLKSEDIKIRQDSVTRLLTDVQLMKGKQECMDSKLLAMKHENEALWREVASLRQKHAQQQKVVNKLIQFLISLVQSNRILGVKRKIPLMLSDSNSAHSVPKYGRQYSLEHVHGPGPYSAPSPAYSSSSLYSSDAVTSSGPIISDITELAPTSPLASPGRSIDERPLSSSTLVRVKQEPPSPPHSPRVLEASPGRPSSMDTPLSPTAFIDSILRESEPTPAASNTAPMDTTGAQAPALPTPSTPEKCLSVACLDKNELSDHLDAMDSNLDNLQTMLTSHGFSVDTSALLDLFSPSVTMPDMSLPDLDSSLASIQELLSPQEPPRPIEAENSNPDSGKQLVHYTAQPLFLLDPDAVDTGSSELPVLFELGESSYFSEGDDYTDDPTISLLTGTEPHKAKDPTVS

[12] = target: T4, Corticotropin-releasing factor receptor 2/Corticotropin-releasing factor-binding protein (Homo sapiens, UniProt P24387+Q13324); assay: activators of CRF receptor 2 with binding protein – uHTS hits, confirmation (AID 602473); type: functional; conditions: read-out: EC50_Mean
T4 sequence (Q13324 whole entry): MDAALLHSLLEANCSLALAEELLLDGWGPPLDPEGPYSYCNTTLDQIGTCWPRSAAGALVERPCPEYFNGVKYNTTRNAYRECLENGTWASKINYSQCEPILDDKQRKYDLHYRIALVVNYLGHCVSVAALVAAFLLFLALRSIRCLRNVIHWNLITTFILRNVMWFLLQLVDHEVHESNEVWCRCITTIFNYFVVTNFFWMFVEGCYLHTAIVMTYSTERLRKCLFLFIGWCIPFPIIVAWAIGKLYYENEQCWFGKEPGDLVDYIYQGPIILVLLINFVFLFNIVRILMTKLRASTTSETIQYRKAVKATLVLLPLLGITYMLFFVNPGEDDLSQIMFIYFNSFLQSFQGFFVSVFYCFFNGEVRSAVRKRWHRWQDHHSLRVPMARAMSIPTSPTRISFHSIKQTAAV
T4 sequence (P24387 whole entry): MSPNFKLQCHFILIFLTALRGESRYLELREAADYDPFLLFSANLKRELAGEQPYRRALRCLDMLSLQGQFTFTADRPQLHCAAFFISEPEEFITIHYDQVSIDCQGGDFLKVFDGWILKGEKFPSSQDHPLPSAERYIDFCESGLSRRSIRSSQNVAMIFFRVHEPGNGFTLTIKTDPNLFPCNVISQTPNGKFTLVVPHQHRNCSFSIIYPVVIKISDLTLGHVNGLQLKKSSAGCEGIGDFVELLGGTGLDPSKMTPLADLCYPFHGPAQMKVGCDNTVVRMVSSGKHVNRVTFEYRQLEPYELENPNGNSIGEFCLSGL

[13] = target: T4, Corticotropin-releasing factor receptor 2/Corticotropin-releasing factor-binding protein; assay: Dose Response confirmation of uHTS hits for small molecule antagonists of the CRF-binding protein and CRF-R2 receptor complex.; type: functional; conditions: read-out: IC50_Mean
[14] = target: T5, Replicative DNA helicase DnaB (Mycobacterium tuberculosis, UniProt P9WMR3); assay: DnaB intein splicing inhibitors, dose response, biochemical, cell-free fluorescence (AID 449749); type: functional
T5 sequence (P9WMR3 whole entry): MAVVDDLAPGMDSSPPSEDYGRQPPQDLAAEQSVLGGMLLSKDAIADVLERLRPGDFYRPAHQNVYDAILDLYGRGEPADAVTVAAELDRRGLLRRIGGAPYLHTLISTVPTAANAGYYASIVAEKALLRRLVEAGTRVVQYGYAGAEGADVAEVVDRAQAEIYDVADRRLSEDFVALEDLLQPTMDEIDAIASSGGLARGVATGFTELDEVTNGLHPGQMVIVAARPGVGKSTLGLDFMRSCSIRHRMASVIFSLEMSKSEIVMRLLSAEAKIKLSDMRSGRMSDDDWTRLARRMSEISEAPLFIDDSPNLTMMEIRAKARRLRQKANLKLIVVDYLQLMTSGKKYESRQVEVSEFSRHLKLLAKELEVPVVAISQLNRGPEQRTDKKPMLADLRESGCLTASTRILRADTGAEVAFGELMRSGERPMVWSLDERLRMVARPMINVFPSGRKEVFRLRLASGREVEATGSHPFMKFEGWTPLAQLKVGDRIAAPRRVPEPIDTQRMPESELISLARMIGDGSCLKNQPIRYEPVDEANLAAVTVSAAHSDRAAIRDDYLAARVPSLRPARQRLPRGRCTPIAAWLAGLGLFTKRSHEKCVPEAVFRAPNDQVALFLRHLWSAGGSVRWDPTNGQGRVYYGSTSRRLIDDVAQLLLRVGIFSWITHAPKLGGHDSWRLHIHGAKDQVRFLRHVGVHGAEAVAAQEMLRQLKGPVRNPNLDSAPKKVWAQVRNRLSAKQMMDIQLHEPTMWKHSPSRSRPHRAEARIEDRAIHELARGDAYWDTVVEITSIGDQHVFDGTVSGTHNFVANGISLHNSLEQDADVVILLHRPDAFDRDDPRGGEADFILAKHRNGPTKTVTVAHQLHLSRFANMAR

[15] = target: T6, Protein RecA (Mycobacterium tuberculosis, UniProt P9WHJ3); assay: Fluorescence Cell-Free Homogeneous Dose Retest to Identify Inhibitors of RecA-Intein Splicing Activity. [Related pubchem assays (depositor defined):AID2097, AID2223, AID489010, AID492950]; type: functional
T6 sequence (P9WHJ3 whole entry): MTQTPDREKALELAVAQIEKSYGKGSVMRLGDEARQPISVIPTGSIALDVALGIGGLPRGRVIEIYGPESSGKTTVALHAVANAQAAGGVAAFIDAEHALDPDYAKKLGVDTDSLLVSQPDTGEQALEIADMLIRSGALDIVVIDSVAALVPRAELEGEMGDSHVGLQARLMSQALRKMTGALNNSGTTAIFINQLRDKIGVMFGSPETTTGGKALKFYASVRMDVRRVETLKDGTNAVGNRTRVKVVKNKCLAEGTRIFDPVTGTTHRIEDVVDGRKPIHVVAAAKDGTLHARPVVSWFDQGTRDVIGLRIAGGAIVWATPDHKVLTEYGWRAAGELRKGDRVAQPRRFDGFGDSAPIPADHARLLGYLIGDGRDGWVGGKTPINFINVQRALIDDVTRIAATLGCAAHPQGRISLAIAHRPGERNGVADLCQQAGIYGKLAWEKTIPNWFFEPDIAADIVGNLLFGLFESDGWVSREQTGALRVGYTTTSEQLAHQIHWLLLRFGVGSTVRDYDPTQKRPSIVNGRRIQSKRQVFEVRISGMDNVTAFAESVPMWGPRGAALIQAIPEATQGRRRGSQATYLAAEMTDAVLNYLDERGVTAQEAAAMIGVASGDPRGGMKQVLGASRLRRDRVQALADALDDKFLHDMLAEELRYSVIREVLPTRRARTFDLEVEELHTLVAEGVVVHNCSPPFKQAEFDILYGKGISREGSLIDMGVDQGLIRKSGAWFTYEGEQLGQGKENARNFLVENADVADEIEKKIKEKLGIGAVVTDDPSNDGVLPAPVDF

[16] = target: Cytochrome P450 2C19 (Homo sapiens, UniProt P33261); assay: Cytochrome panel assay with activity outcomes. Panel member name: p450-cyp2c19 Compounds with AC50 equal or less than 10 uM are considered active; type: functional
[17] = target: Cytochrome P450 2D6 (Homo sapiens, UniProt P10635);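 further: CYP2D6 member of a cytochrome P450 panel assay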
[18] = target: Cytochrome P450 2C9 (Homo sapiens, UniProt P11712)
[19] = target: T7, Cytochrome P450 1A2 (Homo sapiens, UniProt P05177);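 further: PubChem cytochrome P450 panel assay, CYP1A2 panel member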
T7 sequence (P05177 whole entry): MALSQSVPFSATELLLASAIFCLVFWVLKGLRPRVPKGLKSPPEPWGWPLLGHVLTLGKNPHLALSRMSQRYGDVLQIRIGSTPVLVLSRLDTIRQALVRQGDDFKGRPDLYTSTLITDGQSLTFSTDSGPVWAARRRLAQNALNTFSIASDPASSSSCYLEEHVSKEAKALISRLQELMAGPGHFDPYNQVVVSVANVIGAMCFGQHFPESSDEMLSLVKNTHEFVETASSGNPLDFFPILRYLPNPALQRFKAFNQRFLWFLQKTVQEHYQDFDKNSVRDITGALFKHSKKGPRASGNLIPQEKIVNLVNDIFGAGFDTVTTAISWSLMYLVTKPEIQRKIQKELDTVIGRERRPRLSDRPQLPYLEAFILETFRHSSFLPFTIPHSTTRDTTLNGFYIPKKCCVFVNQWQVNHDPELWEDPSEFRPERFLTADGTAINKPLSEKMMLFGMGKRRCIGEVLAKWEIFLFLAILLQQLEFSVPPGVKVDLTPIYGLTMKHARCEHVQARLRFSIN

[20] = inhibitors of PGC1a acetylation in cells, dose response, cell-based, cherry-picked samples (AID 720514); type: functional;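 further: potency may reflect raised or lowered acetylation signal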

Chain of Glucose-6-phosphate 1-dehydrogenase (P11413 whole entry): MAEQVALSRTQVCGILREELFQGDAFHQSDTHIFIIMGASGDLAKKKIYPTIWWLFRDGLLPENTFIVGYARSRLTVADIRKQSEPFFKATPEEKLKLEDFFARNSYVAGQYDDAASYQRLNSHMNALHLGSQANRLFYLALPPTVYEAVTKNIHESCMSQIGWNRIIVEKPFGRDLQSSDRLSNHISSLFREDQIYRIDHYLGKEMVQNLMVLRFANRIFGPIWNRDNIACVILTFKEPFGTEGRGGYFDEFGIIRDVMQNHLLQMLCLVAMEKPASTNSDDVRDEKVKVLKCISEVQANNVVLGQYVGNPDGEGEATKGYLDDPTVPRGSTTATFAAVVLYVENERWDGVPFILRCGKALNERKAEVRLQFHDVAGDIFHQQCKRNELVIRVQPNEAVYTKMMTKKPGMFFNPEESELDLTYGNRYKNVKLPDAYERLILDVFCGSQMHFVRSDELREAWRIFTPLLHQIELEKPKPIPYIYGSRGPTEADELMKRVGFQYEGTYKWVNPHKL

## CN1CCc2cc(O)cc3c2[C@H]1Cc1ccc(O)c(O)c1-3
[1]
  IC50: 63 µM (inactive)
[2]
  IC50: 9.43 µM (active)
[3]
  EC50: 3.17 µM (active)
[4]
  CC50: 16 µM (active)
[5]
  EC50: 92.4 µM (inactive)
[6]
  EC50: 5.41 µM (active)
[7]
  EC50: 0.0112 µM (active)

## Cc1ccc(C(=O)CNc2ccc(Cl)cc2)cc1
[8]
  EC50: > 91.2 µM (inactive)
[9]
  EC50: > 91.2 µM (inactive)
[10]
  IC50: 130 µM (inactive)
[11]
  EC50: > 260 µM (inactive)

## CCC(C)c1ccc(NC(=S)Nc2ccc(OC)cc2)cc1 (configuration not stated)
[12]
  EC50: > 53 µM (inactive)
[13]
  IC50: > 47.1 µM (inactive)
[10]
  IC50: > 80 µM (inactive)

## COc1ccc(-c2cc(C(=O)N3CCN(C(c4ccccc4)c4ccccc4)CC3)no2)cc1
[10]
  IC50: > 80 µM (inactive)

## CC(C)C[C@H]1C(=O)N2CCC[C@H]2[C@]2(O)O[C@](NC(=O)[C@@H]3C=C4c5cccc6[nH]c(Br)c(c56)CC4N(C)C3)(C(C)C)C(=O)N12 (some centres not stated)
[14]
  AC50: > 380 µM (inactive)
[5]
  EC50: 92.5 µM (inactive)
[15]
  EC50: > 380 µM (inactive)
[7]
  EC50: 0.0038 µM (active)

## CCS(=O)(=O)N1CCC(C(=O)NCCCN2CCN(c3ccccc3F)CC2)CC1
[16]
  AC50: inconclusive
[5]
  EC50: 92.5 µM (inactive)
[17]
  AC50: 15.8 µM (inconclusive)
[18]
  AC50: inconclusive
[19]
  AC50: 1.26 µM (inconclusive)
[7]
  EC50: 76.1 µM (inactive)

## Cc1ccc2[nH]c(C(=O)N3CCN(C(c4ccccc4)c4ccccc4)CC3)cc2c1
[10]
  IC50: > 80 µM (inactive)

## C[C@@H]1CN([C@@H](C)CO)C(=O)c2cc(NC(=O)CCCN(C)C)ccc2O[C@@H](C)CCCCO[C@@H]1CN(C)Cc1ccc(C(F)(F)F)cc1
[20]
  AC50: 37.9 µM (active)
